Data reported in ChEMBL document CHEMBL3853350 (ACS Med Chem Lett, 2016).

Tests used:
[1] = Half life in human hepatocytes at 1 uM by LC/MS analysis; format: ADME, cell-based, Hepatocyte
[2] = target: T1, Cytochrome P450 1A2 (Homo sapiens, UniProt P05177); experiment: Inhibition of CYP1A2 in human liver microsomes after 5 mins in presence of NADPH by LC-MS/MS analysis; format: ADME
T1 sequence (P05177 whole entry): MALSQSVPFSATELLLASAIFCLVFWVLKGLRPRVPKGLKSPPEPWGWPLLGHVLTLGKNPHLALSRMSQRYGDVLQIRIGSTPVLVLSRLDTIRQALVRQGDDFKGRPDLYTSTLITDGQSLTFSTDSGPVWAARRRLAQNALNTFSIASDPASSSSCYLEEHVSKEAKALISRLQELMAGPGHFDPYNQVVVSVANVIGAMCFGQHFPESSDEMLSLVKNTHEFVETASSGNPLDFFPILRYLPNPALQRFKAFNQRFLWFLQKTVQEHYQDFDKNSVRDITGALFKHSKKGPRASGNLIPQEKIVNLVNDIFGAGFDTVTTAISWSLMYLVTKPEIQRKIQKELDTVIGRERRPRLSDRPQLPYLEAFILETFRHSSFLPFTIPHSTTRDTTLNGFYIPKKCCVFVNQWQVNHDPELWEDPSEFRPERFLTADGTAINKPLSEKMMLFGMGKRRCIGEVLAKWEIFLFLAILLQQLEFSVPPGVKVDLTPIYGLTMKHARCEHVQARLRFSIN

[3] = target: T2, Cytochrome P450 2B6 (Homo sapiens, UniProt P20813); experiment: Inhibition of CYP2B6 in human liver microsomes after 5 mins in presence of NADPH by LC-MS/MS analysis; format: ADME
T2 sequence (P20813 whole entry): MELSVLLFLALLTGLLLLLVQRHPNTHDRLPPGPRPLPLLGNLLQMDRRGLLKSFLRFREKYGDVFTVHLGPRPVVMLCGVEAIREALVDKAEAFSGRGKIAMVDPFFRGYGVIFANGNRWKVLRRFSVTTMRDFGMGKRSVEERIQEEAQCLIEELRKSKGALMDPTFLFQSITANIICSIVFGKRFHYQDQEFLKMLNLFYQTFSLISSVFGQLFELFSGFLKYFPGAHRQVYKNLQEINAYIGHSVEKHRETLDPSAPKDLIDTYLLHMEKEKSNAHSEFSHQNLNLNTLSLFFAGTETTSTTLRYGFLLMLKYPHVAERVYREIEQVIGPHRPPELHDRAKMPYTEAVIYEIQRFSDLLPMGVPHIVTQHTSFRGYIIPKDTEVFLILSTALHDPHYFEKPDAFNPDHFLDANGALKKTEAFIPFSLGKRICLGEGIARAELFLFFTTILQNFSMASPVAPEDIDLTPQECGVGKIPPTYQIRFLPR

[4] = Half life in CD-1 mouse plasma at 1 mg/kg, iv by LC/MS/MS analysis; format: ADME, organism-based
[5] = Clearance in CD-1 mouse plasma at 1 mg/kg, iv measured 24 hrs post dose by LC/MS/MS analysis; format: ADME, organism-based
[6] = Volume of distribution at steady state in CD-1 mouse plasma at 1 mg/kg, iv measured 24 hrs post dose by LC/MS/MS analysis; format: ADME, organism-based; conditions: read-out: Vdss
[7] = Clearance in cynomolgus monkey plasma at 0.5 mg/kg, iv measured 24 hrs post dose by LC/MS/MS analysis; format: ADME, organism-based, Macaca fascicularis

- half-life at 1 µM [1]: > 360 min
- IC50 [2]: > 20 µM
- IC50 [3]: > 20 µM
- half-life [4]: 192 min
- clearance [5]: 3.6 mL/min/kg
- Vd [6]: 0.8 L/kg
- clearance [7]: 4.3 mL/min/kg
SMILES: C[C@H](NC(=O)c1c(N)nn2cccnc12)c1cc2cccc(C#Cc3cnn(C)c3)c2c(=O)n1-c1ccccc1 [EGANELISIB]
